The assay addresses T1, Kv4.3 (Rattus norvegicus, UniProt Q62897).
T1 construct: expressed in transfected cells; host or cells: HEK293t
T1 sequence (Q62897 1-655): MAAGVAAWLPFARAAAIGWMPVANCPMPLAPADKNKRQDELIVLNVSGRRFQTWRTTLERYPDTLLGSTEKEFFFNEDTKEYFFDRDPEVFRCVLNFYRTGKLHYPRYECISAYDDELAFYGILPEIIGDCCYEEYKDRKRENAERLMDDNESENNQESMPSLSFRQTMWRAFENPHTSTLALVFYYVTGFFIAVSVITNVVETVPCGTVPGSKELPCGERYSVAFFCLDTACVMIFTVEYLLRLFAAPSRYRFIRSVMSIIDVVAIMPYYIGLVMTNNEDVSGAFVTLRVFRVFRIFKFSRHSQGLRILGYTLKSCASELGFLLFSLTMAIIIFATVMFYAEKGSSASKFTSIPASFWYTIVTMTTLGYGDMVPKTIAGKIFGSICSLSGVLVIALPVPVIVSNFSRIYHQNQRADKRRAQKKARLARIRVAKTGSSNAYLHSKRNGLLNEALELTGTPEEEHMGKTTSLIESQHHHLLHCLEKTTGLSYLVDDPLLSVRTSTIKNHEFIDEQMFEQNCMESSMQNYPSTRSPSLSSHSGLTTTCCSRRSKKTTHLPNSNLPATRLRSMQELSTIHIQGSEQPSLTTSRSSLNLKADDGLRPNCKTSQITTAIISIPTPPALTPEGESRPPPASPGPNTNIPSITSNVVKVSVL
Kind of assay: current-voltage relationship / activation, Kv4.3. Type of assay: cell-based. An excerpt: Rat cDNA genes encoding Kv4.2 (Accession: NM_031730.2) and Kv4.3 (Accession: AB003587.1) were subcloned to vector pcDNA3.1. In addition, human cDNA genes encoding Nav1.7 (Accession: DQ857292.1) and Nav1.5 (Accession: AB158469.2) were subcloned to vectors pcDNA3.1-mod and pcDNA3.1, separately. Then, Kv4.2, Kv4.3, Nav1.5 and Nav1.7 constructs were transiently transfected into the human embryonic kidney 293t (HEK293t) cells using lipofectamine 2000 (Invitrogen, USA) in accordance with manufacturer protocols. Thereafter, HEK293 cells were inoculated within Dulbecco’s modified Eagle’s medium (DMEM) containing 10% fetal bovine serum (FBS) at 5% CO2 and 37°C. The Kv4.3 channel and the Kv4.2 counterpart were then transfected in the absence of β subunit. Subsequently, cells were incubated with a DNA-lipofectamine mixture (one reporter plasmid for green fluorescence protein and channel constructs) for 4-6 h, and were washed with the fresh medium.
An EPC-10 patch-clamp amplifier (HEKA, Germany) was employed to record the potassium currents at the configuration of whole-cell patch-clamp under an ambient temperature of 22-25°C. The resistance was 2.0-3.0 MΩ when the recording pipette contained a full volume of internal solution (supplemented with 140 mM KCl, 10 mM HEPES, 2.5 mM MgCl2, 5 mM ATP and 11 mM EGTA). KOH was utilized to adjust the pH to 7.2, while sucrose was employed to adjust the osmolarity to 310 mOsm/L. The culture medium was replaced with an external solution containing 150 mM NaCl, 2.5 mM CaCl2, 10 mM HEPES, 2 mM MgCl2, 5 mM KCl, and 10 mM D-glucose. Similarly, sucrose and NaOH were applied to adjust the osmolarity to 330 mOsm/L and pH to 7.4. […] The series resistance was maintained at about 5 MΩ, with 65-70% compensation. Finally, the leakage currents and linear capacitance were subtracted digitally according to the P/4 protocol.
The voltage-dependent inhibition of Kv4.2 and Kv4.3 channels by JZTX-X was determined by the depolarizing pulses to potentials in 10 mV steps from −80 to +60 mV at an interval of 10 s and the holding potential of -80 mV. […] For quantifying the voltage-depending inhibition of Kv4.2 and Kv4.3 channels, the relative current was drawn based on the membrane potential. Under control conditions, those threshold potentials to initially activate Kv4.2 and Kv4.3 currents were around -40 mV. The JZTX-X treatment at 500 nM inhibited the Kv4.2 and Kv4.3 currents, and then the I-V relation shifted to the right by about 30 mV (from -39.5 ± 1.9 mV to -11.3 ± 1.2 mV ) and 40 mV (from -39.8 ± 1.5 mV to -2.5 ± 0.9 mV ), separately (Fig. 5C and D). Additionally, the channel conductance also shifted rightward by around 30 mV (data not shown).
Figure 5. […] All data were expressed as mean ± S.E.M (n = 5-7 cells).

Where a SMILES comes first, the peptide text is derived from it. Bridges are numbered along the chain shown (N, C = ends).

Experimental findings from article PMC7269146, “Jingzhaotoxin-X, a gating modifier of Kv4.2 and Kv4.3 potassium channels purified from the venom of the Chinese tarantula Chilobrachys jingzhao” (The Journal of Venomous Animals and Toxins Including …, 2020) are described below.

With `CC(C)C[C@@H]1NC(=O)[C@H](CCCCN)NC(=O)[C@H](Cc2ccc(O)cc2)NC(=O)[C@@H]2CSSC[C@@H]3NC(=O)[C@H](Cc4ccc(O)cc4)NC(=O)[C@H](Cc4ccccc4)NC(=O)CNC(=O)[C@H](C)NC(=O)[C@H](CSSC[C@H](NC(=O)[C@@H](N)CC(C)C)C(=O)N[C@@H](CO)C(=O)N[C@@H](CCCNC(=N)N)C(=O)N[C@@H](CCC(=O)O)C(=O)NCC(=O)N[C@@H](CCC(=O)O)C(=O)N[C@@H](Cc4ccccc4)C(=O)N2)NC(=O)[C@H](CSSC[C@@H](C(=O)N[C@@H](Cc2ccc(O)cc2)C(=O)N[C@@H](CCCNC(=N)N)C(=O)N[C@@H](CC(N)=O)C(=O)O)NC(=O)[C@H](Cc2c[nH]cn2)NC(=O)[C@H](CC(C)C)NC(=O)[C@H](C(C)C)NC(=O)[C@H](Cc2ccccc2)NC(=O)[C@H](C)NC(=O)[C@H](CCCCN)NC3=O)NC(=O)[C@H](CCCCN)NC(=O)[C@H](CCCNC(=N)N)NC1=O` [JZTX-X, Jingzhaotoxin-X] (H-LCSREGEFCYKLRKCCAGFYCKAFVLHCYRN-OH; disulfide 2-16, 9-21, 15-28; N-terminus assumed), the “I-V relation potential after toxin, Kv4.3” value (500 nM, control -39.8 ± 1.5 mV, holding -80 mV, n = 5-7 cells) is -2.5 ± 0.9 mV. In addition, the “rightward shift of I-V relation, Kv4.3” value (500 nM, holding -80 mV) is roughly 40 mV. For the same compound, the “rightward shift of channel conductance, Kv4.3” value (data not shown, channel not named separately) was “about 30 mV”. Moreover, under “test potentials -10 to +60 mV, 100 nM and 500 nM”, the “voltage dependence of Kv4.3 inhibition” value is “dependent on voltage”.
